Data as given in US9084420B2, “Amide derivative, pest control agent containing the amide derivative, and pest controlling method” (Mitsui Chemicals Agro, Inc., priority 2008, dated 2015).
Structures can show the parent of a compound that is named as a salt.

How the values were obtained:
Format in all cases: in vivo
Spodoptera litura [1] = assay: Pesticidal test against Spodoptera litura (cabbage leaf immersion); details: 144 h, 2-stage larvae on treated cabbage leaf, 25° C., after 6 days, read-out: pesticidal rate
Procedure: (§1) Pesticidal Test Against Spodoptera litura A piece of a cabbage leaf was immersed for 30 seconds in a chemical solution in which a test compound had been diluted at a predetermined concentration, and air-dried, and then put into a 7 cm polyethylene cup having a filter paper laid on the bottom thereof, and 2-stage larvae of Spodoptera litura were released. They were left to stand in a thermostatic chamber at 25° C., and the numbers of the living pests and the dead pests were examined after 6 days. The test was carried out with five larvae per group in two replicates.

Musca domestica = assay: Pesticidal test against Musca domestica (petri dish residue); details: 24 h, acetone solution dried in petri dish, female adults, 25° C., after 1 day, read-out: pesticidal rate
Procedure: Pesticidal Test Against Musca domestica
1 ml of an acetone solution in which a test compound had been diluted at a predetermined concentration was added dropwise to a petri dish having a diameter of 9 cm, and air-dried, and then the female adults of Musca domestica were released and the petri dish was capped. They were left to stand in a thermostatic chamber at 25° C., and the numbers of the living pests and the dead pests were examined after 1 day. The test was carried out with […] in two replicates.

Plutella xylostella = assay: Pesticidal test against Plutella xylostella (cabbage leaf immersion); details: 144 h, 3-stage larvae on treated cabbage leaf, 25° C., after 6 days, read-out: pesticidal rate
Procedure: as §1, with “Plutella xylostella” for “Spodoptera litura”, “3-stage” for “2-stage”

Spodoptera litura [2] = assay: Pesticidal test of penetration migration against Spodoptera litura (radish seedling root immersion); details: 72 h, radish seedling root immersed 2 days, leaf fed to 2-stage larvae, 25° C., after 3 days, read-out: pesticidal rate
Procedure: Pesticidal Test of Penetration Migration against Spodoptera litura A root portion of a radish seedling was immersed for 2 days in a chemical solution in which a test compound had been diluted at a predetermined concentration, then the leaf was cut and put into a 7 cm polyethylene cup having a filter paper laid on the bottom thereof, and 2-stage larvae of Spodoptera litura were released. They were left to stand in a thermostatic chamber at 25° C., and the numbers of the living pests and the dead pests were examined after 3 days. The test was carried out with five larvae per group in two replicates.

SMILES	pest or weed control at 100 ppm (Spodoptera litura [1])	pest or weed control at 1000 ppm (Musca domestica)	pest or weed control at 100 ppm (Plutella xylostella)	pest or weed control at 1 ppm (Spodoptera litura [2])
Cc1cc(C(F)(C(F)(F)F)C(F)(F)F)cc(C)c1NC(=O)c1cccc(N(CCC#N)C(=O)c2ccccc2)c1 [5-8, N-(2-cyanoethyl)-N-(3-(2,6-dimethyl-4-(perfluoropropan-2-yl)phenylcarbamoyl)phenyl)benzamide]	≥ 70%	≥ 70%	≥ 70%	
NC(=O)CCN(C(=O)c1ccccc1)c1cccc(C(=O)Nc2c(Br)cc(C(F)(C(F)(F)F)C(F)(F)F)cc2C(F)(F)F)c1F [1-171, 3-(N-(3-amino-3-oxopropyl)benzamide)-N-(2-bromo-4-(perfluoropropan-2-yl)-6-(trifluoromethyl)phenyl)-2-fluorobenzamide]	≥ 70%		≥ 70%	≥ 70%
CC(=O)CCN(C(=O)c1ccccc1)c1cccc(C(=O)Nc2c(C)cc(C(F)(C(F)(F)F)C(F)(F)F)cc2C)c1 [5-100, N-(3-(2,6-dimethyl-4-(perfluoropropan-2-yl)phenylcarbamoyl)phenyl)-N-(3-oxobutyl)benzamide]	≥ 70%	≥ 70%	≥ 70%	
CC(C)(C)OC(=O)C(CN(C(=O)c1cccc(C#N)c1)c1cccc(C(=O)Nc2c(Br)cc(C(F)(C(F)(F)F)C(F)(F)F)cc2Br)c1F)C(=O)OC(C)(C)C [6-44, di-tert-butyl 2-((3-cyano-N-(3-(2,6-dibromo-4-(perfluoropropan-2-yl)phenylcarbamoyl)-2-fluorophenyl)benzamide)methyl)malonate]	≥ 70%	≥ 70%	≥ 70%	
C/C(CCN(C(=O)c1ccccc1)c1cccc(C(=O)Nc2c(C)cc(C(F)(C(F)(F)F)C(F)(F)F)cc2C)c1)=N\O [5-105, N-(3-(2,6-dimethyl-4-(perfluoropropan-2-yl)phenylcarbamoyl)phenyl)-N-(3-(hydroxyimino)butyl)benzamide]	≥ 70%	≥ 70%	≥ 70%	
Cc1cc(C(F)(C(F)(F)F)C(F)(F)F)cc(C)c1NC(=O)c1cccc(N(CCCC(N)=O)C(=O)c2ccccc2)c1 [6-16, N-(4-amino-4-oxobutyl)-N-(3-(2,6-dimethyl-4-(perfluoropropan-2-yl)phenylcarbamoyl)phenyl)benzamide]	≥ 70%	≥ 70%	≥ 70%	
COC(=O)CCN(C(=O)c1ccccc1)c1cccc(C(=O)Nc2c(I)cc(C(F)(C(F)(F)F)C(F)(F)F)cc2C(F)(F)F)c1 [5-80, methyl 3-(N-(3-(2-iodo-4-(perfluoropropan-2-yl)-6-(trifluoromethyl)phenylcarbamoyl)phenyl)benzamide)propanoate]	≥ 70%	≥ 70%	≥ 70%	
Cc1cc(C(F)(C(F)(F)F)C(F)(F)F)cc(C)c1N(C)C(=O)c1cccc(N(CC#N)C(=O)c2ccccc2)c1 [6-18, 3-(N-(cyanomethyl)benzamide)-N-(2,6-dimethyl-4-(perfluoropropan-2-yl)phenyl)-N-methylbenzamide]	≥ 70%		≥ 70%	
Cc1cc(C(F)(C(F)(F)F)C(F)(F)F)cc(C)c1NC(=O)c1cccc(N(CCC(N)=O)C(=O)c2ccccc2)c1 [1-1, N-(3-amino-3-oxopropyl)-N-(3-(2,6-dimethyl-4-(perfluoropropan-2-yl)phenylcarbamoyl)phenyl)benzamide]	≥ 70%		≥ 70%	
N#Cc1ccc(C(=O)N(CCS(N)(=O)=O)c2cccc(C(=O)Nc3c(Br)cc(C(F)(C(F)(F)F)C(F)(F)F)cc3Br)c2F)cc1 [2-133, 3-(4-cyano-N-(2-sulfamoylethyl)benzamide)-N-(2,6-dibromo-4-(perfluoropropan-2-yl)phenyl)-2-fluorobenzamide]	≥ 70%		≥ 70%	≥ 70%
CCOC(=O)NC(=O)CCN(C(=O)c1ccc(C#N)cc1)c1cccc(C(=O)Nc2c(Br)cc(C(F)(C(F)(F)F)C(F)(F)F)cc2C(F)(F)F)c1F [5-76, ethyl 3-(N-(3-(2-bromo-4-(perfluorophan-2-yl)-6-(trifluoromethyl)phenylcarbamoyl)-2-fluorophenyl)-4-cyanobenzamide)propanoylcarbamate]	≥ 70%	≥ 70%	≥ 70%	≥ 70%
Cc1cc(C(F)(C(F)(F)F)C(F)(F)F)cc(C)c1NC(=O)c1cccc(N(CCC(N)=O)C(=O)c2ccccc2)c1F [1-21, 3-(N-(3-amino-3-oxopropyl)benzamide)-N-(2,6-dimethyl-4-(perfluoropropan-2-yl)phenyl)-2-fluorobenzamide]	≥ 70%		≥ 70%	≥ 70%
COC(=O)CN(C(=O)c1ccccc1)c1cccc(C(=O)N(C)c2c(C)cc(C(F)(C(F)(F)F)C(F)(F)F)cc2C)c1 [6-1, methyl 2-(N-(3((2,6-dimethyl-4-(perfluoropropan-2-yl)phenyl)(methyl)carbamoyl)phenyl)benzamide)acetate]	≥ 70%		≥ 70%	
Cc1cc(C(F)(C(F)(F)F)C(F)(F)F)cc(C)c1N(C)C(=O)c1cccc(N(CC[S+](C)[O-])C(=O)c2ccccc2)c1 (stereo not shown) [5-72, N-(2,6-dimethyl-4-(perfluoropropan-2-yl)phenyl)-N-methyl-3-(N-(2-(methylsulfinyl)ethyl)benzamide)benzamide]	≥ 70%		≥ 70%	
Cc1cc(C(F)(C(F)(F)F)C(F)(F)F)cc(C)c1N(C)C(=O)c1cccc(N(CCS(C)(=O)=O)C(=O)c2ccccc2)c1 [5-73, N-(2,6-dimethyl-4-(perfluoropropan-2-yl)phenyl)-N-methyl-3-(N-(2-(methylsulfonyl)ethyl)benzamide)benzamide]	≥ 70%		≥ 70%	
Cc1cc(C(F)(C(F)(F)F)C(F)(F)F)cc(C)c1NC(=O)c1cccc(N(CCC(=O)OCC(NC(=O)OC(C)(C)C)C(=O)OC(C)(C)C)C(=O)c2ccccc2)c1 (stereo not shown) [5-22, tert-butyl 2-(tert-butoxycarbonylamino)-3-(3-(N-(3-(2,6-dimethyl-4-(perfluoropropan-2-yl)phenylcarbamoyl)phenyl)benzamide)propanoyloxy)propanoate]	≥ 70%		≥ 70%	
NC(=O)CCN(C(=O)c1ccccc1)c1cccc(C(=O)Nc2c(Br)cc(C(F)(C(F)(F)F)C(F)(F)F)cc2Br)c1F [1-163, 3-(N-(3-amino-3-oxopropyl)benzamide)-N-(2,6-dibromo-4-(perfluoropropan-2-yl)phenyl)-2-fluorobenzamide]	≥ 70%		≥ 70%	≥ 70%
N#Cc1cccc(C(=O)N(CCC(=O)NO)c2cccc(C(=O)Nc3c(Br)cc(C(F)(C(F)(F)F)C(F)(F)F)cc3Br)c2F)c1 [5-33, 3-(3-cyano-N-(3-(hydroxyamino)-3-oxopropyl)benzamide)-N-(2,6-dibromo-4-(perfluoropropan-2-yl)phenyl)-2-fluorobenzamide]	≥ 70%		≥ 70%	≥ 70%
Cc1cc(C(F)(C(F)(F)F)C(F)(F)F)cc(C)c1N(C)C(=O)c1cccc(N(CC(N)=O)C(=O)c2ccccc2)c1 [6-12, 3-(N-(2-amino-2-oxoethyl)benzamide)-N-(2,6-dimethyl-4-(perfluoropropan-2-yl)phenyl)-N-methylbenzamide]	≥ 70%		≥ 70%	
Cc1cc(C(F)(C(F)(F)F)C(F)(F)F)cc(C)c1N(C)C(=O)c1cccc(N(C[S+](C)[O-])C(=O)c2ccccc2)c1 (stereo not shown) [6-7, N-(2,6-dimethyl-4-(perfluoropropan-2-yl)phenyl)-N-methyl-3-(N-(methylsulfinylmethyl)benzamide)benzamide]	≥ 70%		≥ 70%	
Cc1cc(C(F)(C(F)(F)F)C(F)(F)F)cc(C)c1NC(=O)c1cccc(N(CCC(=O)OCC(N)C(=O)O)C(=O)c2ccccc2)c1 (stereo not shown) [5-25, 2-amino-3-(3-(N-(3-(2,6-dimethyl-4-(perfluoropropan-2-yl)phenylcarbamoyl)phenyl)benzamide)propanoyloxy)propanoic acid hydrochloric acid salt]	≥ 70%		≥ 70%	
